Experimental data published in PubChem BioAssay (NCI).
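Cultured in 96-well plates, cells were exposed to test compound for 48 hours across five concentrations. At the TGI there is no net growth.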 Where a SMILES comes first, the peptide text is derived from it.

What was measured:
Assay in all cases: NCI-60 cell line screen, 48 h
LOX IMVI melanoma = test system: LOX IMVI melanoma
A498 renal = test system: A498 renal
SF-539 CNS = test system: SF-539 CNS
CAKI-1 renal = test system: CAKI-1 renal
ACHN renal = test system: ACHN renal
COLO 205 colon = test system: COLO 205 colon
M14 melanoma = test system: M14 melanoma
SF-295 CNS = test system: SF-295 CNS
A549 NSCLC = test system: A549 NSCLC
NCI-H522 lung = test system: NCI-H522 lung
NCI-H226 lung = test system: NCI-H226 lung
HL-60(TB) leukemia = test system: HL-60(TB) leukemia
HOP-92 NSCLC = test system: HOP-92 NSCLC
CCRF-CEM leukemia = test system: CCRF-CEM leukemia
UACC-62 melanoma = test system: UACC-62 melanoma
SNB-19 CNS = test system: SNB-19 CNS
RPMI-8226 leukemia = test system: RPMI-8226 leukemia
HCC-2998 colon = test system: HCC-2998 colon

| Compound | TGI (LOX IMVI melanoma) | TGI (A498 renal) | TGI (SF-539 CNS) | TGI (CAKI-1 renal) | TGI (ACHN renal) | TGI (COLO 205 colon) | TGI (M14 melanoma) | TGI (SF-295 CNS) | TGI (A549 NSCLC) | TGI (NCI-H522 lung) | TGI (NCI-H226 lung) | TGI (HL-60(TB) leukemia) | TGI (HOP-92 NSCLC) | TGI (CCRF-CEM leukemia) | TGI (UACC-62 melanoma) | TGI (SNB-19 CNS) | TGI (RPMI-8226 leukemia) | TGI (HCC-2998 colon) |
| --- | --- | --- | --- | --- | --- | --- | --- | --- | --- | --- | --- | --- | --- | --- | --- | --- | --- | --- |
| O=C1c2cscc2C(=O)C1(O)O | > 100 µM | > 100 µM | > 100 µM | 83.7 µM | > 100 µM | 36.7 µM | 45.5 µM | > 100 µM | > 100 µM | 40.3 µM | > 100 µM | 72.5 µM | > 100 µM | 52.9 µM | > 100 µM | > 100 µM | > 100 µM |  |
| CC(=O)c1nc2ccccc2n1CC(=O)c1ccc(Cl)cc1 | 12.6 µM | > 100 µM | > 100 µM | > 100 µM |  | 53 µM | > 100 µM | 43.7 µM | 32.4 µM | 23 µM | > 100 µM | > 100 µM | 22.5 µM | > 100 µM | 27.8 µM | > 100 µM | > 100 µM |  |
| CC[C@H](C)C1=C(O)[N@+]2([O-])Oc3ccc(-c4c(O)c(O)c(-c5ccc(OC(C)=O)cc5)c(OC(C)=O)c4OC(C)=O)cc3O[C@]2([C@@H](C)CC)C(=O)N1O | > 50 µM | > 50 µM | > 50 µM | > 50 µM | > 50 µM | > 50 µM | > 50 µM | > 50 µM | > 50 µM | 18 µM |  | > 50 µM | 45.8 µM | 23.8 µM | > 50 µM | > 50 µM | 42 µM | 24.5 µM |
| COc1ccc2oc(=O)c3c(c2c1C)OC(C)(C)C=C3 | > 100 µM | > 100 µM | > 100 µM | > 100 µM | > 100 µM | > 100 µM | > 100 µM | > 100 µM | > 100 µM | > 100 µM | > 100 µM | > 100 µM |  | > 100 µM | > 100 µM | > 100 µM | > 100 µM | > 100 µM |
| CC1(Br)C(=O)NC(=O)N(C2CC(N=[N+]=[N-])C(CO)O2)C1N=[N+]=[N-] (stereo not given) | > 100 µM | > 100 µM | > 100 µM | > 100 µM | > 100 µM | > 100 µM | > 100 µM | > 100 µM | > 100 µM | 66.8 µM |  | > 100 µM | > 100 µM | > 100 µM | > 100 µM | > 100 µM | > 100 µM | > 100 µM |
| Nc1nc(Cl)cc(NCC2(CO)CCC(O)C2)n1 (stereo not given) | > 100 µM | > 100 µM | > 100 µM | > 100 µM | > 100 µM | > 100 µM | > 100 µM | > 100 µM | > 100 µM | > 100 µM | > 100 µM | > 100 µM | > 100 µM | > 100 µM | > 100 µM | > 100 µM | > 100 µM |  |
| CC(=O)NC(CS)C(=O)NC(CO)C(=O)NC(CO)C(=O)NC(Cc1c[nH]c2ccccc12)C(=O)N1CCCC1C(=O)NC(CO)C(=O)NC(Cc1c[nH]c2ccccc12)C(=O)NC(Cc1c[nH]cn1)C(=O)NC(CO)C(=O)NC(Cc1c[nH]c2ccccc12)C(=O)NCC(=O)NCC(=O)NC(CC(=O)O)C(=O)NC(CCC(N)=O)C(=O)NC(CCCCN)C(=O)NC(Cc1ccccc1)C(=O)NC(CCCNC(=N)N)C(=O)NC(CCCCN)C(N)=O (stereo not given) (Ac-CSSWPSWHSWGGDQKFRK-NH2; configuration not given here) | > 25 µM | > 25 µM | > 25 µM | > 25 µM | > 25 µM | > 25 µM | > 25 µM | > 25 µM | > 25 µM | > 25 µM | > 25 µM | > 25 µM | > 25 µM | > 25 µM | > 25 µM | > 25 µM | > 25 µM |  |
| CC(C)c1c(O[Si](C(C)C)(C(C)C)C(C)C)c2c3c(ccc4c3c1OC4(C)C)C(C)CC2 (stereo not given) | > 100 µM | > 100 µM | > 100 µM | > 100 µM | > 100 µM | > 100 µM | > 100 µM | > 100 µM | > 100 µM | > 100 µM | > 100 µM | > 100 µM | > 100 µM | > 100 µM | > 100 µM | > 100 µM | > 100 µM |  |
| NCCCCN(CCCN)Cc1ccccc1 |  | > 100 µM | > 100 µM | > 100 µM | > 100 µM | > 100 µM | > 100 µM | > 100 µM | > 100 µM | > 100 µM | > 100 µM | > 100 µM | > 100 µM | > 100 µM | > 100 µM | > 100 µM | > 100 µM | > 100 µM |
| C/C=C/C(C#N)(Cc1ccccc1)OP1(=O)OC(c2ccccc2)C(C)N1C (stereo not given) | > 100 µM | > 100 µM | > 100 µM | > 100 µM | > 100 µM | > 100 µM | > 100 µM | > 100 µM | > 100 µM | > 100 µM |  | 41.9 µM | > 100 µM | 41.2 µM | > 100 µM | > 100 µM | > 100 µM | > 100 µM |
| CO[C@@H]1C=C[C@@]23c4cc5c(cc4C(O)N(CC2O)C3C1)OCO5 (stereo not given in full) | 48.5 µM | 7.68 µM | > 100 µM | 27.2 µM | 18.6 µM | 14.2 µM | 12.6 µM | 64.1 µM | 39.5 µM | > 100 µM | > 100 µM | 5.64 µM | 13.6 µM | 5.38 µM | 20.4 µM | 33.8 µM | > 100 µM |  |
| COc1cc2c(cc1OC)C1CCc3ccccc3CN1CC2 (stereo not given) | > 100 µM | > 100 µM | > 100 µM | > 100 µM | > 100 µM | > 100 µM | > 100 µM | > 100 µM | > 100 µM | > 100 µM | > 100 µM | > 100 µM | > 100 µM | > 100 µM | > 100 µM | > 100 µM |  | > 100 µM |
| NC1CC(=O)c2csc(Cl)c21 (stereo not given) | 24.1 µM | 33.5 µM | 9.56 µM | 3.68 µM | 10.3 µM | 12.1 µM | 23.7 µM | 32 µM | 36.7 µM | 3.32 µM | 94.6 µM | 13.1 µM | 25.4 µM | 3.68 µM | 24.7 µM | 33.2 µM |  | 33.9 µM |
